Values after ≈ are worked out from the molar mass of the structure shown. Read-outs that look alike come from different tables or passages of the source.
Tests used:
human CB1R = target: T1, human CB1R (Homo sapiens, UniProt P21554); experiment: CB1R mediated modulation of cAMP synthesis; assay type: cell-based; conditions: CHO cells expressing human CB1R, forskolin-stimulated cAMP
T1 construct: host or cells: CHO cells
Protocol: Compounds of the invention are evaluated for their CB1 agonist or inverse agonistic activity in accordance with the following experimental method.
(§1) CHO cells expressing human CB1R (Euroscreen) are plated at a density of 5000 cells per well in 384 well plates and incubated overnight at 37° C. After removing the media, the cells are treated with test compounds diluted in stimulation buffer containing 1 mM IBMX, 0.25% BSA and 10 uM Forskolin. The assay is incubated for 30 minutes at 37° C. Cells are lysed and the cAMP concentration is measured using DiscoverX—XS cAMP kit, following the manufacturer's protocol. In this setting, agonists will decrease forskolin induced production of cAMP while inverse agonists will further increase forskolin induced production of cAMP. EC50 of agonists are calculated as follows. The maximal amount of cAMP produced by forskolin compared to the level of cAMP inhibited by 1 uM CP55940 is defined as 100%. The EC50 value of each test compound is determined as the concentration at which 50% of the forskolin-stimulated cAMP synthesis is inhibited. Data is analyzed using a four-parameter logistic model. (Model 205 of XLfit 4.0).

human CB2R = target: T2, human CB2R (Homo sapiens, UniProt P34972); experiment: CB2R mediated modulation of cAMP synthesis; assay type: cell-based
T2 construct: host or cells: CHO cells
T2 sequence (P34972 whole entry): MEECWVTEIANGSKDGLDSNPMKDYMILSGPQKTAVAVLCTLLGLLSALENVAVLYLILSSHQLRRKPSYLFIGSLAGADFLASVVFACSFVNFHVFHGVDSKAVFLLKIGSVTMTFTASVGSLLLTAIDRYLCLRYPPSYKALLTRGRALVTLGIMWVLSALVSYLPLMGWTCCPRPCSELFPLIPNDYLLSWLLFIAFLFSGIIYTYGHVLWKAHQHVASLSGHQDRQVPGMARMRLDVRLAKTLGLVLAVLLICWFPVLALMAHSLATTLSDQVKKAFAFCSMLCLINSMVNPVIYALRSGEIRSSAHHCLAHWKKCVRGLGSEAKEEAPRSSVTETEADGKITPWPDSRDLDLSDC
Protocol: Compounds of the invention are evaluated for their CB2 agonist or inverse agonistic activity in accordance with the following experimental method.
as §1, with “CB2R” for “CB1R”

[1] = test system: Salmonella bacterial strains TA98 and TA100; experiment: Ames mutagenicity assay: bacteria reverse mutation screening assay; assay type: cell-based; conditions: TA98 and TA100, presence or absence of S9
Protocol: The Ames ^(1) Salmonella bacterial strains used in the abbreviated screening assay ^(2) are TA98 and TA100. Actively growing (log phase) bacteria are incubated with test compound and trace amounts of histidine in the presence or absence of S9 for 48 hours on minimal agar plates. Test compound is dissolved in DMSO to a final concentration of 100 mg/ml. The stock is serially diluted to yield concentrations of 100, 50, 25 12.5 and 6.3 mg/ml. Fifty microliters of dosing solution is combined with top agar and buffer (or S9 mix) and poured on duplicate plates to yield effective doses of 5000, 2500, 1250, 625 and 313 μg/plate. Positive and negative controls plates are included. Formation of colonies after 48 hr incubation at 37° C. is an indication of genetic reversion, either arising spontaneously or caused by the test compound. The average number of spontaneous colonies growing on control plates is compared to the number of colonies on test plates. A fold increase of 2-3× over background is generally considered a positive response for mutagenicity. • 1. Maron, D. M. and Ames, B. N. (1983). “Revised Methods for the Salmonella Mutagenicity Test”. Mutat. Res. 113, 173-215. • 2. D. A. Burke, D. J. Wedd, and B. Burlinson (1996). “Use of the Miniscreen assay to screen novel compounds for bacterial mutagenicity in the pharmaceutical industry”. Mutagenesis 11: 201-205.

[2] = Aqueous (equilibrium) solubility assay; assay type: physicochemical; conditions: aqueous buffer, thermodynamic from solid, 48 hrs equilibrium
Protocol: The equilibrium solubility of compounds is determined in pH 2, 4.5, 6.8 buffers. Prior to solubility measurement, the crystalline/amorphous characteristics of the sample are determined by observing the powder form under polarized light microscope. Solubility is only measured when compound is crystalline.
Approximately 2 mg of compound are weighed out into a vial and 1-2 ml of buffer are added into the vial (pHs 2 & 4.5, use 1 ml and for pHs 6.8 and 7.4 use 2 ml of buffer). The vial is rotated for 48 hrs protected from light. After 48 hrs, the sample is transferred into an eppendorf tube and centrifuged for 10 minutes at 14,000 RPM, if the supernatant is not clear, it is filtered (PVDF filter). The clear supernatant is diluted if necessary, before analyzing via HPLC. The final pH of the supernatant or the filtrate is measured and reported. The external calibration curve is used to determine the solubility value. The percentage of extraneous peaks relative to the parent peak is monitored in the standard solution as well as the solubility sample. Preferred compounds of the invention will have a solubility of >100 μg/ml.

[3] = Human microsomal stability assay; assay type: in vitro ADME; conditions: human liver microsomes 1 mg protein/ml, 1 uM compound, pH 7.4
Protocol: The double time point high throughput screen for human liver microsomal metabolic stability is used to measure the in vitro metabolism of test compounds by human liver microsomal enzymes. The data collected are analyzed to calculate a half-life (t½, min) and clearance (expressed as percent hepatic blood flow, % QH) for test compounds. The assay is performed in 50 mM potassium phosphate buffer, pH 7.4 and 2.5 mM NADPH. Test samples are dissolved in DMSO and acetonitrile for a final assay concentration of 1 uM. Human liver microsomes are diluted in assay buffer to a final assay concentration of 1 mg protein/ml. Compound solution and microsome suspension are added to assay buffer for a final incubation volume of 350 ul. The preparation is incubated for 5 min in a 37° C. water bath. The reaction is started by the addition of NADPH. Volumes of 80 ul are removed from the incubation mix at 0, 5, and 30 min after the start of the reaction and added to 160 ul acetonitrile. The supernatant is transferred to 0.25 mm glass fiber filter plates and centrifuged for 5 min at 3000 rpm. Injection volumes of 10 ul are typically added to HPLC columns with formic acid in water or acetonitrile at a flow rate of 0.3 ml/min. Percent loss of parent compound is calculated from the area under each time point to determine the half-life and clearance. Preferred compounds of the invention will have a human liver microsomal stability of <25% QH.

[4] = pH 4.5 buffer, read-out: solubility at pH 4.5
[5] = Table XI, read-out: CB1 CAMP EC50
[6] = pH 6.8 buffer, read-out: solubility at pH 6.8
[7] = Table XI, CHO cells expressing human CB2R, forskolin-stimulated cAMP, read-out: CB2 CAMP EC50

T1 sequence (P21554 whole entry): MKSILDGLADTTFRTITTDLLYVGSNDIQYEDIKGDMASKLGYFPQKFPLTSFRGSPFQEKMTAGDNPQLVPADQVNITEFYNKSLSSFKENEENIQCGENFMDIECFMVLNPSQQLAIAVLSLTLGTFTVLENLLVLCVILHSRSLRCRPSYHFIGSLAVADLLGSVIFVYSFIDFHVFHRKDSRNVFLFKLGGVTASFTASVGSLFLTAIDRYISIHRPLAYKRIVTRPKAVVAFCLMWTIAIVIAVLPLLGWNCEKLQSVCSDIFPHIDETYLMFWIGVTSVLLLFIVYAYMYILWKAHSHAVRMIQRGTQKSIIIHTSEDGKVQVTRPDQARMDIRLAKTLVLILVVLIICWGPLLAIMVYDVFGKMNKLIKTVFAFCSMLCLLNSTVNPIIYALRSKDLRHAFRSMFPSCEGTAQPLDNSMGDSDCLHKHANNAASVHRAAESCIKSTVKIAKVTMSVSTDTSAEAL

Compound	EC50 (human CB1R; CB1 EC50, Table II)	EC50 (human CB2R)	Ames [1]	EC50 (human CB1R; CB1 CAMP EC50, Table XI)	solubility at 48 h [2, 4]	HLM clearance (percent hepatic blood flow) [3]	EC50 (human CB1R; [5])	solubility at 48 h [2, 6]	EC50 (human CB2R; [7])
CO[C@H]1CC[C@@H](S(=O)(=O)C(C)(C)C(=O)Nc2nnn(C(C)(C)C)n2)CC1	> 50000 nM	56 nM	–	–	–	–	–	–	–
CC(C)(C)n1nnc(NC(=O)C(C)(C)S(=O)(=O)[C@H]2CC[C@@H](O)CC2)n1	> 50000 nM	8.7 nM	–	–	–	–	–	–	–
CC(C)(C)n1nnc(NC(=O)C(C)(C)S(=O)(=O)CC[C@@H]2CCOC2)n1	~50000 nM	12 nM	–	–	–	–	–	–	–
CCC(C)S(=O)(=O)C(C)(C)C(=O)Nc1cc(C(C)(C)C)on1 (stereo not shown) [Example 42 WO08039645]	–	19 nM	negative	> 20000 nM	20 µg/mL (≈ 60.5 µM)	68 QH %	–	–	–
CCC(C)S(=O)(=O)C(C)(C)C(=O)Nc1cc(C(C)(C)C)nn1C (stereo not shown) [Example 43 WO08039645]	–	–	positive	–	1260 µg/mL (≈ 3680 µM)	61 QH %	> 20000 nM	1160 µg/mL (≈ 3370 µM)	642 nM
CCC(C)S(=O)(=O)C(C)(C)C(=O)Nc1nc(C(C)(C)C)cs1 (stereo not shown) [Example 44 WO08039645]	–	14 nM	negative	10700 nM	13 µg/mL (≈ 37.5 µM)	67 QH %	–	–	–
CC(C)(C)c1cc(NC(=O)C(C)(C)S(=O)(=O)CC2CCOCC2)no1 [Example 56 WO08039645]	–	4.5 nM	negative	> 20000 nM	47 µg/mL (≈ 126 µM)	47 QH %	–	44 µg/mL (≈ 118 µM)	–
CC(C)(C)c1csc(NC(=O)C(C)(C)S(=O)(=O)CC2CCOCC2)n1 [Example 57 WO08039645]	–	23 nM	negative	2400 nM	383 µg/mL (≈ 986 µM)	87 QH %	–	406 µg/mL (≈ 1040 µM)	–
Cn1nc(C(C)(C)C)cc1NC(=O)C(C)(C)S(=O)(=O)CC1CCOCC1 [Example 59 WO08039645]	–	–	positive	–	396 µg/mL (≈ 1030 µM)	<30.10 QH %	> 20000 nM	452 µg/mL (≈ 1170 µM)	140 nM

Reference: patent US8329735B2, “Tetrazole compounds which selectively modulate the CB2 receptor” (Boehringer Ingelheim International GmbH, priority 2010, dated 2012)
